Laboratory results reported in article PMC13622972 (Antiviral research, 2022).
Positions of bridges follow the written chain, without caps; N, C: chain ends. Residues, ends and D or L forms follow the SMILES beside them.

Columns and labels:
[1] = system: pseudotyped Vesicular stomatitis virus (VSV); assay type: cell-based
[2] = system: pseudotyped Ebola virus (EBOV)
[3] = system: pseudotyped Marburg virus (MARV)
[4] = system: wild type Ebola virus Zaire; details: 36 h

Structure (SMILES) | Activity against the pseudotyped VSV virus [1] | IC50 [2] [µM] | IC50 [3] [µM] | IC50 [4] [µM]
CC(C)[C@@H]1NC(=O)[C@H](Cc2ccccc2)NC(=O)[C@H](Cc2ccccc2)NC(=O)[C@H](CC(=O)O)NC(=O)[C@H](CC(=O)O)NC(=O)CNC(=O)[C@H](CCCCN)NC(=O)[C@@H](NC(=O)[C@@H](N)Cc2c[nH]cn2)CSSC[C@@H](C(=O)N[C@@H](Cc2ccc(O)cc2)C(=O)O)NC(=O)[C@H](C)NC(=O)[C@H](Cc2ccc(O)cc2)NC1=O [erp1c, HCKGDDFFVYACY] (H-HCKGDDFFVYACY-OH; disulfide 2-12 (inferred); N-terminus and C-terminus assumed) | no activities | 12.3 | 28.5 | 10.5
C[C@@H](O)[C@@H]1NC(=O)CNC(=O)[C@@H](N)CSSC[C@@H](C(=O)O)NC(=O)[C@H](Cc2ccc(O)cc2)NC(=O)[C@H](Cc2ccc(O)cc2)NC(=O)[C@H](Cc2ccc(O)cc2)NC(=O)[C@H](Cc2ccccc2)NC1=O [m78abc, CGTFYYYC] (H-CGTFYYYC-OH; disulfide 1-8 (inferred); N-terminus and C-terminus assumed) | no activities | 16.1 | 12.5 | –
CC(C)[C@@H]1NC(=O)[C@H](Cc2ccccc2)NC(=O)CNC(=O)[C@H](CO)NC(=O)[C@@H](N)CSSC[C@@H](C(=O)O)NC(=O)[C@H](Cc2c[nH]c3ccccc23)NC(=O)[C@H](CCC(=O)O)NC1=O [m191abc, CSGFVEWC] (H-CSGFVEWC-OH; disulfide 1-8 (inferred); N-terminus and C-terminus assumed) | no activities | 37.2 | 8.5 | –
